# Data reported in US20240082200A1, “4-THIOCARBAMOYLPHENYL 2-(4-OXOPHENYL)-PHENYL PROPANOATE FOR THE TREATMENT OF PAIN ASSOCIATED WITH UROLOGIC CHRONIC PELVIC PAIN SYNDROME” (Antibe Therapeutics Inc., priority 2022, published 2024).
# “Also recorded” adds a separate entry of the source.
# How the values were obtained:
# [1] = test system: cyclophosphamide (CYP)-induced interstitial cystitis; assay: Mechanical allodynia (electronic von Frey) in CYP-induced cystitis mice; type: in vivo, male C57BL/6 SPF mice; details: for reversal of abdominal mechanical allodynia (withdrawal threshold, AUC 21 to 24 h after CYP): 21 h after CYP
# Procedure: Experiments were conducted with male C57BL/6 SPF mice (6-10 weeks of age) obtained from the animal care facilities at the Faculty of Medicine, University of Sao Paulo, Brazil. Mice were randomly separated into different treatment groups (n=5 to 7 per group). Groups of five or fewer mice were kept in Perspex cages under standard controlled conditions (22° C.; 12/12 h light/dark cycle) with free access to food (Nuvilab CR-1, Quimtia S/A, Brazil) and filtered tap water. The study was performed in agreement with the guidelines from the Brazilian Council for Control of Animal Experimentation (CONCEA) guidelines, consistent with the Animal Welfare Act. All the experimental protocols were approved by the local ethics committee (CEUA—ICB; protocol n ° 2055050819). According to the internal laboratory rules, euthanasia was performed if severe distress related to the test agents developed during the experiment.
# Cystitis was induced by a single i.p. injection of cyclophosphamide CYP (300 mg kg^−1; Oliveira et al., 2018), while the control group received an i.p. injection of saline (10 ml kg^−1). […] The drugs were dissolved in 0.5% CMC at a concentration of 10 ml/kg^−1.
# The mice were individually placed in a clear Perspex testing chamber (11 cm×9.5 cm×18 cm) on an elevated wire grid platform (0.5 cm2 grid) for an adequate acclimatization (˜1 h). Mechanical sensitivity assessment was performed with the aid of an electronic von Frey apparatus (Insight Inc., Ribeiräo Preto, SP, Brazil) with groups of 5-7 mice each, as described previously (Costa et al., 2020). Force-generating pressure was applied to the lower abdomen in the vicinity of the bladder (pelvic region between the urethra and the anus) with a pressure transducer connected to a digital force detector (Insight Ltd, Ribeiräo Preto/SP, Brazil). Retraction of the abdomen (mechanical allodynia) from the probe was considered as a positive response to the stimuli and were recorded in grams (g). […] All mechanical sensitivity testing was performed in a blinded manner. Response threshold data were analyzed via analysis of variance (ANOVA) followed by Tukey's post hoc test. All mice were euthanized with an overdose of isoflurane followed by cervical dislocation.
# [2] = test system: gastric mucosa; assay: Assessment of gastric lesions in IC/BPS mice; type: in vivo, male C57BL/6 SPF mice; details: 3 h after oral dose, compound of Formula I 77 mg kg^-1 / ketoprofen 50 mg kg^-1 (equimolar)
# Procedure: Briefly, mice from distinct experimental groups were euthanized by cervical dislocation under isoflurane anesthesia, and the stomach was excised, opened along the smaller curvature, rinsed gently with saline and then photographed with a digital camera (Samsung Galaxy S20, Campinas/SP, Brazil). The hemorrhagic gastric lesion area was measured blindly (mm^2) using computerized planimetry software (ImageJ, Maryland, USA).
# [3] = test system: bladder strips; assay: Bladder functional assay in vitro (bladder strips from treated CYP-cystitis mice); type: in vivo, male C57BL/6 SPF mice; details: for reduced contractile response of CYP bladder strips to KCl (80 mM): improvement: bladders taken 24 h after CYP
# Procedure: The drugs were dissolved in 0.5% CMC at a concentration of 10 ml/kg^−1.
# After 24 h, mice with CYP-induced cystitis were euthanized and the bladders were immediately transferred into a petri-dish. […] The bladders were divided into two longitudinal strips and mounted in an isolated organ bath system (Panlab Harvard, Massachussetts, USA) containing Krebs Henseleit solution at 37° C. (pH 7.4, O2/CO2 […] v/v) under a resting tension of 5 mN. Tissues were allowed to stabilize for 1 h, and during this period the bathing solution was replaced every 15 min. Isometric force was recorded using a PowerLab 8/30 Data Acquisition System (Software Chart, version 6.0, ADInstrument, Milford, MA, USA).
# [4] = test system: periodontitis; details: compared with ketoprofen (parent drug); cited from earlier work
# [5] = in vivo; cited from earlier work
# [6] = test system: surgical incision pain model; details: mice; cited from earlier work
smiles,measurement,setting,value
"CC(C(=O)Oc1ccc(C(N)=S)cc1)c1ccc(C(=O)c2ccccc2)cc1 (centres unmarked) [compound of Formula I, 4-thiocarbamoylphenyl 2-(4-oxophenyl)-phenyl propanoate]","reversal of abdominal mechanical allodynia (withdrawal threshold, AUC 21 to 24 h after CYP)","[1]; equimolar dose compound of Formula I 15 mg kg^-1 / ketoprofen 10 mg kg^-1, p.o., vs CYP + CMC 0.5%",significant dose-dependent differences
same,"reversal of abdominal mechanical allodynia (withdrawal threshold, AUC 21 to 24 h after CYP)","[1]; equimolar dose compound of Formula I 46 mg kg^-1 / ketoprofen 30 mg kg^-1, p.o., vs CYP + CMC 0.5%",significant dose-dependent differences
same,"reversal of abdominal mechanical allodynia (withdrawal threshold, AUC 21 to 24 h after CYP)","[1]; equimolar dose compound of Formula I 77 mg kg^-1 / ketoprofen 50 mg kg^-1, p.o., vs CYP + CMC 0.5%",significant dose-dependent differences
same,analgesic effect as compared to equimolar ketoprofen (mechanical allodynia AUC),"[1]; highest equimolar dose, 77 mg kg^-1 p.o. vs ketoprofen 50 mg kg^-1, P<0.001",enhanced analgesic effects
same,"anti-hyperalgesic effect on decreased abdominal withdrawal threshold (mechanical allodynia, AUC 21 to 24 h after CYP)","[1]; lowest equimolar dose (compound of Formula I 4.6 mg kg^-1 / ketoprofen 3 mg kg^-1), p.o., 21 h after CYP 300 mg kg^-1 i.p., vs CYP + CMC 0.5%",no an anti-hyperalgesic effect
same,"potency compared with ketoprofen (abdominal hyperalgesic state and bladder contractile response, CYP-induced IC/BPS model)",[1]; orally administered as a single dose,greater than that of ketoprofen
same,hemorrhagic gastric lesions (gastric mucosal hemorrhagic injury),[2],did not; also recorded: normal gastric mucosa
same,reduced contractile response of CYP bladder strips to KCl (80 mM): improvement,"[3]; equimolar dose compound of Formula I 15 mg kg^-1 / ketoprofen 10 mg kg^-1 p.o., vs CYP control",significantly and dose-dependently increased
same,reduced contractile response of CYP bladder strips to KCl (80 mM): improvement,"[3]; equimolar dose compound of Formula I 46 mg kg^-1 / ketoprofen 30 mg kg^-1 p.o., vs CYP control",significantly and dose-dependently increased
same,reduced maximal (Emax) contractile response elicited by carbachol (CCh) in bladder strips of IC/BPS mice: improvement,[3]; high doses (compound of Formula I 77 mg kg^-1 / ketoprofen 50 mg kg^-1 p.o.),significantly increased
same,reduced contractile response of CYP bladder strips to KCl (80 mM): improvement,[3]; high doses: compound of Formula I 77 mg kg^-1 / ketoprofen 50 mg kg^-1 p.o.,neither compound of Formula I (77 mg kg^−1) nor ketoprofen (50 mg kg^−1) significantly improved
same,potency and effectiveness in periodontitis versus parent drug,[4],more potent and effective
same,GI safety compared to ketoprofen,[5],increased GI safety
same,efficacy over ketoprofen in surgical incision pain model,[6],increased efficacy
